Source: patent US20130225671A1, “Methods of Treating Seizure Disorders” (Massachusetts Institute of Technology, priority 2010, published 2013)
Entries after “also recorded” stand apart in the source; their conditions may differ. Marks after values point to notes of the source that are not given here.

Columns and labels:
IL-1β = settings: human whole blood, TPA-induced; cited from earlier work
MEK = settings: read-out: MEK Enzyme IC50; cited from earlier work
[1] = tested on: Rat carrageenan paw edema; settings: PO, once; cited from earlier work
[2] = tested on: Cytochrome p450 (5 major isoforms); settings: read-out: Cytochrome p450 Inhibition-IC50; cited from earlier work
[3] = tested on: rat adjuvant-induced arthritis; settings: PO, QD×7; cited from earlier work
TNF-α = settings: human whole blood, TPA-induced; cited from earlier work
[4] = tested on: Rat Collagen-Induced Arthritis; settings: PO, QD×7; cited from earlier work
Malme-3M pERK = settings: Malme-3M cells; cited from earlier work
~200 other kinases = ~200 other kinases at 1 μM; cited from earlier work
25 receptors = settings: cited from earlier work
IL-6 = settings: human whole blood, TPA-induced; cited from earlier work
Fmr1 KO mouse = assay: Audiogenic seizures (AGS) in Fmr1 KO and WT mice;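 for all read-outs here: male WT and Fmr1 KO littermates aged P17-25 given a 2 min seizure-provoking stimulus, scored blind to genotype for wild running, clonic and tonic seizures and death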; settings: for AGS incidence: 1 h, vehicle KO about 74%; for incidence of AGS: Example 1, vehicle KO 73%; for incidence of AGS / Clonic seizure incidence / Death incidence / Tonic seizure incidence / WR (wild running) incidence: i.p. 100 mg/kg SL 327 or 30 mg/kg Formula I; for Clonic seizure incidence / Death incidence / Tonic seizure incidence / WR (wild running) incidence: 1 h before stimulus
Procedure: One hour later, mice were exposed to a seizure-inducing stimulus for 2 minutes, and scored for four stages of AGS: wild running (WR; pronounced, undirected running and thrashing), clonic seizure (violent spasms accompanied by loss of balance), tonic seizure (postural rigidity in limbs), and death [35, 37, 39]. All animals were injected and scored blind to genotype.
AGS: Experiments were performed using male WT and Fmr1 KO littermates (P17-25) as described herein. […] Immediately prior to testing, mice were transferred to a quiet (about <60 dB ambient sound) room for 1 hour. Mice were then transferred to a transparent plastic test chamber and, after 1 minute of habituation, exposed to a 130 dB stimulus (recorded sampling of a modified personal alarm, RADIOSHACK model 49-1010) for about 2 minutes. Each testing session contained mice from both genotype and treatment groups. For each group, incidence of the following stages of AGS was calculated: wild running (WR; pronounced, undirected running and thRashing), clonic seizure (violent spasms accompanied by loss of balance), tonic seizure (postural rigidity in limbs), and death. All aspects of the experiments were performed blind to genotype.
For each mouse, four stages of increasing AGS severity were scored: wild running, clonic seizure, tonic seizure, or death[16].

[5] = tested on: protein synthesis in WT and Fmr1 KO hippocampal slices; assay: Protein synthesis in hippocampal slices (35S-Met/Cys metabolic labeling); format: cell-based, mouse
Procedure: Dorsal hippocampal slices were prepared from juvenile (postnatal day 25-32) WT and Fmr1 KO mice using the same metabolic labeling procedure described in [35]. Briefly, 500 μm slices were recovered in carbogenating, 32.5° C. ACSF (in mM: NaCl: 124, KCl: 3, NaH2PO4: 1.25, NaHCO3: 26, dextrose: 10, MgCl2: 1, CaCl2: 2, saturated with 95% O2 and 5% CO2), pre-incubated in actinomycin D (ActD, 25 μM) for 30 min to prevent transcription, and protein synthesis measured over 30 minutes via incorporation of a ^35S-labeled methionine/cysteine mix (^35S-Met/Cys).
Group I mGluR activate several signal pathways.
Mice: Fmr1 KO (Jackson Labs) and WT littermates, bred on the C57BL6 or FVB background strains, were group housed and maintained in a 12:12 h light:dark cycle. An In vitro hippocampal slice assay was used herein to recapitulate the exaggerated protein synthesis phenotype seen in the Fmr1 KO[6].
Metabolic labeling: Experiments were performed on male WT and Fmr1 KO mice (postnatal day 25-32), blind to genotype, as described herein. Briefly, 500 μm slices were recovered for 4 h in 32.5° C. […] After labeling, slices were homogenized, and labeled proteins isolated by TCA precipitation. Samples were read with a scintillation counter and also subjected to a protein concentration assay (BIO-RAD). Final data were expressed as counts per minute (CPM) per μg protein, normalized to the ^35S-Met/Cys ACSF used for incubation, and the average incorporation of all samples analyzed in that experiment.

ERK1/2 = ERK1/2 activation (phosphorylation) in hippocampal slices, immunoblotting; format: cell-based, mouse; settings: for ERK1/2 activation (phosphorylation; WT veh = 100%): 1 hour
Ras = Ras activation assay (Ras-GTP pull-down) in hippocampal slices; format: cell-based, mouse
Procedure: Ras activation assay: Slices (4-6 per animal) were prepared exactly as for metabolic labeling, and Ras-GTP isolated using the Active Ras Pull-Down and Detection kit (PIERCE) according to manufacturer's instructions.
Active (GTP-bound) Ras was isolated from homogenized slices using a GST-pull down assay, and compared to total Ras.

[6] = Fmr1 KO mice, C57BL6, 30 mg/kg Formula I acid i.p.
[7] = Fmr1 KO hippocampal slices, 100 μM Formula I in lactone form (Example 1)
[8] = Fmr1 KO hippocampal slices, 100 μM Formula I in lactone form (Example 1), listed as LOVASTATIN
[9] = Fmr1 KO hippocampal slices, 10 μM Formula I
[10] = Fmr1 KO hippocampal slices, 50 μM Formula I
[11] = WT hippocampal slices, 10 μM Formula I
[12] = WT hippocampal slices, 50 μM Formula I
[13] = WT hippocampal slices, 5 μM U0126

Cn1cnc2c(F)c(Nc3ccc(Br)cc3F)c(C(=O)NOCCO)cc21 [ARRY-162]
IC50 (IL-1β): 21 nM
IC50 (MEK): 12 nM
Rat carrageenan paw edema ED50 [1]: ~7 mg/kg
IC50 [2]: > 25000 nM
rat adjuvant-induced arthritis ED50 [3]: 10 mg/kg
IC50 (TNF-α): 23 nM
Rat Collagen-Induced Arthritis ED50 [4]: 3 mg/kg
IC50 (Malme-3M pERK): 11 nM
Kinase selectivity screen (~200 other kinases): no activity
receptor screen (25 receptors): clean
IC50 (IL-6): 21 nM

CCC(C)C(=O)OC1CC(C)C=C2C=CC(C)C(CCC(O)CC(O)CC(=O)[O-])C21.[Na+] (stereo not drawn) [Formula I acid]
AGS severity (distribution of AGS scores) (Fmr1 KO mouse; [6]): attenuates AGS severity
AGS incidence (Fmr1 KO mouse; [6]): significantly reduces AGS incidence

CC[C@H](C)C(=O)O[C@H]1C[C@@H](C)C=C2C=C[C@H](C)[C@H](CC[C@@H]3C[C@@H](O)CC(=O)O3)[C@H]21 [Formula I, (1S,3R,7S,8S,8aR)-8-{2-[(2R,4R)-4-hydroxy-6-oxooxan-2-yl]ethyl}-3,7-dimethyl-1,2,3,7,8,8a-hexahydronaphthalen-1-yl-(2S)-2-methylbutanoate]
AGS severity (distribution of AGS scores) (Fmr1 KO mouse; [6]): significantly lessens the severity of seizures
AGS incidence (Fmr1 KO mouse; [6]): about 28%
AGS severity (distribution of AGS scores) (Fmr1 KO mouse; Fmr1 KO mice, C57BL6, 30 mg/kg Formula I lactone i.p.): significantly reduces AGS severity
AGS severity (distribution of AGS scores) (Fmr1 KO mouse; Fmr1 KO mice, C57BL6, 100 mg/kg Formula I acid i.p.): attenuates AGS severity
AGS severity (distribution of AGS scores) (Fmr1 KO mouse; Fmr1 KO mice, C57BL6, oral, 48 h feeding of 0.1% Formula I chow): significantly reduces AGS severity
incidence of AGS (Fmr1 KO mouse; Fmr1 KO mice): 21%
AGS severity (distribution of AGS scores) (Fmr1 KO mouse; Fmr1 KO mice, FVB, 30 mg/kg Formula I i.p., 30 mg/kg): similarly unaffected; also recorded: does not significantly reduce AGS severity
AGS severity (distribution of AGS scores) (Fmr1 KO mouse; Fmr1 KO mice, FVB, 100 mg/kg Formula I i.p., 100 mg/kg): significantly reduces AGS severity
Clonic seizure incidence (Fmr1 KO mouse; Fmr1 KO mice): 12%*
Death incidence (Fmr1 KO mouse; Fmr1 KO mice): 8%
Tonic seizure incidence (Fmr1 KO mouse; Fmr1 KO mice): 6%*
WR (wild running) incidence (Fmr1 KO mouse; Fmr1 KO mice): 21%*
Clonic seizure incidence (Fmr1 KO mouse; WT mice): 8%*
Death incidence (Fmr1 KO mouse; WT mice): 8%
Tonic seizure incidence (Fmr1 KO mouse; WT mice): 8%
WR (wild running) incidence (Fmr1 KO mouse; WT mice): 13%**
protein synthesis (WT veh = 100%) ([5]; Fmr1 KO hippocampal slices, 10 μM Formula I (acid form, Example 2)): 115±7%
protein synthesis (WT vehicle = 100%) [5, 7]: 104±2%
protein synthesis (WT vehicle = 100%) [5, 8]: can correct protein synthesis
protein synthesis (WT veh = 100%) ([5]; WT hippocampal slices, 10 μM Formula I (acid form, Example 2)): 103±4%
protein synthesis (WT veh = 100%) ([5]; WT hippocampal slices, 50 μM Formula I (acid form, Example 2)): 88±5%
ERK1/2 activation (phosphorylation; WT veh = 100%) (ERK1/2; [9]): 90±6%
ERK1/2 activation (phosphorylation; WT veh = 100%) (ERK1/2; [10]): 78±5%
ERK1/2 activation (WT vehicle = 100%) (ERK1/2; [7]): 181±6%
ERK1/2 activation (WT vehicle = 100%) (ERK1/2; [8]): reduce ERK1/2 activation
ERK1/2 activation (phosphorylation; WT veh = 100%) (ERK1/2; [11]): 94±8%
ERK1/2 activation (phosphorylation; WT veh = 100%) (ERK1/2; [12]): 84±5%
ERK1/2 activation (WT vehicle = 100%) (ERK1/2; WT hippocampal slices, 100 μM Formula I in lactone form (Example 1)): 187±6%
ERK1/2 in hippocampal slices (in words) (ERK1/2; hippocampal slices, Formula I acid form, FIGS. 2F and 2G): downregulates ERK1/2
active (GTP-bound) Ras compared to total Ras (WT veh = 100%) (Ras; [9]): 89±8%
active (GTP-bound) Ras compared to total Ras (WT veh = 100%) (Ras; [10]): 61±9%
active (GTP-bound) Ras compared to total Ras (WT veh = 100%) (Ras; [11]): 87±14%
active (GTP-bound) Ras compared to total Ras (WT veh = 100%) (Ras; [12]): 61±12%
Ras activation in hippocampal slices (in words) (Ras; hippocampal slices, Formula I acid form, FIGS. 2D and 2E): inhibits Ras activation

N#CC(=C(N)Sc1ccccc1N)C(C#N)=C(N)Sc1ccccc1N [Formula U0126, 1,4-diamino-2,3-dicyano-1,4-bis[2-aminophenylthio]butadiene]
protein synthesis (WT vehicle = 100%) [5, 13]: 94±6%
ERK1/2 activation (WT vehicle = 100%) (ERK1/2; [13]): 15±3%

Cc1cccc(C#Cc2ccccc2)n1 [MPEP]
protein synthesis (WT vehicle = 100%) ([5]; Fmr1 KO hippocampal slices, 50 μM MPEP, 5 minutes): 95±2%
protein synthesis (WT vehicle = 100%) ([5]; WT hippocampal slices, 50 μM MPEP, 5 minutes): 104±2%

N#C/C(=C(\N)Sc1ccc(N)cc1)c1ccccc1C(F)(F)F [SL 327, alpha-[amino[(4-aminophenyl)thio]methylene]-2-(trifluoromethyl)benzeneacetonitrile]
incidence of AGS (Fmr1 KO mouse; Fmr1 KO mice): 0%
Clonic seizure incidence (Fmr1 KO mouse; Fmr1 KO mice): 0%*
Death incidence (Fmr1 KO mouse; Fmr1 KO mice): 0%
Tonic seizure incidence (Fmr1 KO mouse; Fmr1 KO mice): 0%*
WR (wild running) incidence (Fmr1 KO mouse; Fmr1 KO mice): 0%*
Clonic seizure incidence (Fmr1 KO mouse; WT mice): 0%*
Death incidence (Fmr1 KO mouse; WT mice): 0%
Tonic seizure incidence (Fmr1 KO mouse; WT mice): 0%
WR (wild running) incidence (Fmr1 KO mouse; WT mice): 0%*
